Results: US20250049970A1, “DLL3 TARGETING PEPTIDES AND CONSTRUCTS THEREOF” (MARIANA ONCOLOGY INC., priority 2023, published 2025)
*1 amine or outer side, *2 acyl side, *3 side chain or, on linkers, in order; H or OH if unused. Where a SMILES comes first, the peptide text is derived from it. Bridges are numbered along the chain shown (N, C = ends). [ ]: non-standard residue; d: D form. The star is where a group is joined. ξ: configuration not given here. X10 = O=C(O)CN1CCN(CC(=O)O)CCN(CC(=O)NC2CCC(CC(=O)*)CC2)CCN(CC(=O)O)CC1; Ala(piperidin-4-yl) = O=C([C@H](CC1CCN([*:3])CC1)N[*:1])[*:2]; DOTA = O=C(O)CN1CCN(CC(=O)O)CCN(CC(=O)*)CCN(CC(=O)O)CC1; Trp(7-OMe) = COc1cccc2c(C[C@H](N)C(=O)O)c[nH]c12; Ala(morpholin-4-yl) = N[C@@H](CN1CCOCC1)C(=O)O; Trp(7-Me) = Cc1cccc2c(C[C@H](N)C(=O)O)c[nH]c12; Bip = N[C@@H](Cc1ccc(-c2ccccc2)cc1)C(=O)O; 2Nal = N[C@@H](Cc1ccc2ccccc2c1)C(=O)O; NMetBuAla = CN[C@@H](CC(C)(C)C)C(=O)O; Gly(4-THP) = N[C@H](C(=O)O)C1CCOCC1; Chg = N[C@H](C(=O)O)C1CCCCC1; NMeNle = CCCC[C@H](NC)C(=O)O; ξIle = CC[C@H](C)C(N)C(=O)O; Dab = NCC[C@H](N)C(=O)O; ξN = NC(=O)CC(N)C(=O)O; CH2 = C([*:1])[*:2]; ξC = NC(CS)C(=O)O

The compounds below were run against T1, DLL3 (Homo sapiens, UniProt Q9NYJ7) (assay: SPR KD, biotinylated human DLL3 on streptavidin chip (Table 8)). Settings: SPR KD, biotinylated human DLL3 on streptavidin sensor chip, 25° C., 1:1 binding model.
T1 sequence (Q9NYJ7 27-618): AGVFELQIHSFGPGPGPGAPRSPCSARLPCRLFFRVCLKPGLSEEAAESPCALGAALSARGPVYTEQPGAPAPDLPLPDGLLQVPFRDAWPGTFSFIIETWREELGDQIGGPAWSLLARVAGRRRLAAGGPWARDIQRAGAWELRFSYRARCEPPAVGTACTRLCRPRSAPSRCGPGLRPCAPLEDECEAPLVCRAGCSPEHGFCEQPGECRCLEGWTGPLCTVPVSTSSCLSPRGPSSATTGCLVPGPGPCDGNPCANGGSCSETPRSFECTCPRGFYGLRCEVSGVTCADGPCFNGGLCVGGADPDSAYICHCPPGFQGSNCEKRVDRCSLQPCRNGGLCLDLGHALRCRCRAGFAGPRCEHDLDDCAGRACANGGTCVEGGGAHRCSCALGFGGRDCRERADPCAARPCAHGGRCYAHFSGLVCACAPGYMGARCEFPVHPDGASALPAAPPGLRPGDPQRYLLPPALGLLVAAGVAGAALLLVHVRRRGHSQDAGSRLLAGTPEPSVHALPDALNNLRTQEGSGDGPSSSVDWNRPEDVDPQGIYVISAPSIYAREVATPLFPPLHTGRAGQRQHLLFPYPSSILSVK
Set-up: biotin (biotinylated)
Text: Biotinylated target ligand human DLL3 was immobilized on a streptavidin sensor chip. A reference surface was set up for nonspecific binding and refractive index changes. […] Sensorgram curves were fitted with 1:1 binding model, and affinity and kinetic parameters were obtained using Biacore Insight evaluation 4.0. software.

SMILES	Kd [nM]
CC(=O)N[C@@H](Cc1c[nH]c2ccccc12)C(=O)N[C@H](C(=O)N[C@H](C(=O)N[C@H]1CSSC[C@@H](C(=O)N[C@@H](Cc2c[nH]c3ccccc23)C(=O)N2CCC[C@H]2C(N)=O)NC(=O)[C@H](CC(=O)O)NC(=O)[C@H](CCCCNC(=O)CN2CCN(CC(=O)O)CCN(CC(=O)O)CCN(CC(=O)O)CC2)NC(=O)[C@H](Cc2ccc3ccccc3c2)NC(=O)[C@H](CC(N)=O)NC(=O)[C@H](CN2CCOCC2)NC1=O)C1CCCCC1)[C@@H](C)O [compound 325, Ac-W-T-(Chg)-C(3)-[3-(1-morpholinyl)-Ala]-N-(2Nal)-Lys(DOTA)-D-C(3)-W-P-CONH2] (Ac-WT[Chg]C[Ala(morpholin-4-yl)]N[2Nal]K(DOTA)DCWP-NH2; disulfide 4-10)	< 1

Same assay, conditions: biotinylated human DLL3 on streptavidin sensor chip, 25° C., 1:1 binding model; read-out: SPR KD

SMILES	Kd [nM]
CC[C@@H](C)[C@@H](NC(=O)[C@H](NC(=O)[C@@H](Cc1c[nH]c2ccccc12)NC(C)=O)[C@H](C)O)C(=O)N[C@H]1CC(=O)NCC[C@@H](C(=O)N[C@@H](Cc2c[nH]c3ccccc23)C(=O)N2CCC[C@H]2C(N)=O)NC(=O)[C@H](CC(=O)O)NC(=O)[C@H](Cc2c[nH]cn2)NC(=O)[C@H](Cc2c[nH]c3ccccc23)NC(=O)[C@H](CC(N)=O)NC(=O)[C@H](CC(N)=O)NC1=O [compound 95, Ac-W-T-I-(L-Asp)*-N-N-W-H-D-(L-2,4-Dab)*-W-P-CONH2 (* denotes lactam between side chains between L-Asp and L-2,4-Dab)] (Ac-[dW][dT][dI]DNNWHD[Dab]WP-NH2; lactam 4-10)	100 to 300
CC(=O)N[C@@H](Cc1c[nH]c2ccccc12)C(=O)N[C@H](C(=O)N[C@H](C(=O)N[C@H]1CSCSC[C@@H](C(=O)N[C@@H](Cc2c[nH]c3ccccc23)C(=O)N2CCC[C@H]2C(N)=O)NC(=O)[C@H](CC(=O)O)NC(=O)[C@H](CCCCNC(=O)CC2CCC(NC(=O)CN3CCN(CC(=O)O)CCN(CC(=O)O)CCN(CC(=O)O)CC3)CC2)NC(=O)[C@H](Cc2ccc3ccccc3c2)NC(=O)C(CC(N)=O)NC(=O)[C@H](CC2CCNCC2)NC1=O)C1CCCCC1)[C@@H](C)O (stereo partly drawn) [compound 432, Ac-W-T-(Chg)-C(1)-[3-(4-piperidinyl)-Ala]-N-(2Nal)-Lys(Chx-DOTA)-D-C(1)-W-P-CONH2] (Ac-WT[Chg]C[Ala(piperidin-4-yl)][ξN][2Nal]K(X10)DCWP-NH2; linker 4-10 via CH2)	< 1
CC(=O)N[C@@H](Cc1c[nH]c2ccccc12)C(=O)N[C@H](C(=O)N(C)[C@@H](CC(C)(C)C)C(=O)N[C@H]1CSCSC[C@@H](C(=O)N[C@@H](Cc2c[nH]c3ccccc23)C(=O)N2CCC[C@H]2C(N)=O)NC(=O)[C@H](CC(=O)O)NC(=O)[C@H](CCCCNC(=O)CN2CCN(CC(=O)O)CCN(CC(=O)O)CCN(CC(=O)O)CC2)NC(=O)[C@H](Cc2ccc3ccccc3c2)NC(=O)[C@H](CC(N)=O)NC(=O)[C@H](CC2CCNCC2)NC1=O)[C@@H](C)O [compound 153] (Ac-WT[NMetBuAla]C[Ala(piperidin-4-yl)]N[2Nal]K(DOTA)DCWP-NH2; linker 4-10 via CH2)	< 1
CC[C@H](C)C(NC(=O)[C@@H](NC(=O)[C@H](Cc1c[nH]c2ccccc12)NC(C)=O)[C@@H](C)O)C(=O)N[C@H]1CSSC[C@@H](C(=O)N[C@@H](Cc2c[nH]c3ccccc23)C(=O)N2CCC[C@H]2C(=O)N[C@H](CCCCNC(=O)CN2CCN(CC(=O)O)CCN(CC(=O)O)CCN(CC(=O)O)CC2)C(N)=O)NC(=O)[C@H](CC(=O)O)NC(=O)[C@H](Cc2cnc[nH]2)NC(=O)[C@H](Cc2ccc3ccccc3c2)NC(=O)[C@H](CCCCNC(=O)CN2CCN(CC(=O)O)CCN(CC(=O)O)CCN(CC(=O)O)CC2)NC(=O)[C@H](CC(N)=O)NC1=O (stereo partly drawn) [compound 248, Ac-W-T-I-C(3)-N-Lys(DOTA)-(2Nal)-H-D-C(3)-W-P-[D-Lys(DOTA)]-NH2] (Ac-WT[ξIle]CNK(DOTA)[2Nal]HDCWP[dK](DOTA)-NH2; disulfide 4-10)	< 1
COc1cccc2c(C[C@H](NC(C)=O)C(=O)N[C@H](C(=O)N[C@H](C(=O)N[C@H]3CSSC[C@@H](C(=O)N[C@@H](Cc4c[nH]c5ccccc45)C(=O)N4CCC[C@H]4C(N)=O)NC(=O)[C@H](CC(=O)O)NC(=O)[C@H](CCCCNC(=O)CN4CCN(CC(=O)O)CCN(CC(=O)O)CCN(CC(=O)O)CC4)NC(=O)[C@H](Cc4ccc5ccccc5c4)NC(=O)[C@H](CC(N)=O)NC(=O)[C@H](CC4CCNCC4)NC3=O)C3CCCCC3)[C@@H](C)O)c[nH]c12 [compound 405, Ac-(7MeO-Trp)-T-(Chg)-C(3)-[3-(4-piperidinyl)-Ala]-N-(2Nal)-Lys(DOTA)-D-C(3)-W-P-CONH2] (Ac-[Trp(7-OMe)]T[Chg]C[Ala(piperidin-4-yl)]N[2Nal]K(DOTA)DCWP-NH2; disulfide 4-10)	< 1
CCCC[C@@H](C(=O)N[C@H]1CSCSC[C@@H](C(=O)N[C@@H](Cc2c[nH]c3ccccc23)C(=O)N2CCC[C@H]2C(N)=O)NC(=O)[C@H](CC(=O)O)NC(=O)[C@H](CCCCNC(=O)CN2CCN(CC(=O)O)CCN(CC(=O)O)CCN(CC(=O)O)CC2)NC(=O)[C@H](Cc2ccc3ccccc3c2)NC(=O)[C@H](CC(N)=O)NC(=O)[C@H](CC2CCNCC2)NC1=O)N(C)C(=O)[C@@H](NC(=O)[C@H](Cc1c[nH]c2ccccc12)NC(C)=O)[C@@H](C)O [compound 400, Ac-W-T-(NMe-Nle)-C(1)-[3-(4-piperidinyl)-Ala]-N-(2Nal)-Lys(DOTA)-D-C(1)-W-P-CONH2] (Ac-WT[NMeNle]C[Ala(piperidin-4-yl)]N[2Nal]K(DOTA)DCWP-NH2; linker 4-10 via CH2)	< 1

More lines, now with the values ahead:

Kd [nM]	SMILES
10 to 100	CC[C@H](C)[C@H](NC(=O)[C@@H](NC(=O)[C@H](Cc1c[nH]c2ccccc12)NC(C)=O)[C@@H](C)O)C(=O)N[C@H]1CSCSC[C@@H](C(=O)N[C@@H](Cc2c[nH]c3ccccc23)C(=O)N2CCC[C@H]2C(N)=O)NC(=O)[C@H](CC(=O)O)NC(=O)[C@H](Cc2cnc[nH]2)NC(=O)[C@H](Cc2c[nH]c3ccccc23)NC(=O)[C@H](CC(N)=O)NC(=O)[C@H](CC(N)=O)NC1=O [compound 343] (Ac-WTICNNWHDCWP-NH2; linker 4-10 via CH2)
100 to 300	CC[C@H](C)[C@H](NC(=O)[C@@H](NC(=O)[C@H](Cc1c[nH]c2ccccc12)NC(=O)[C@H](CCSC)NC(C)=O)[C@@H](C)O)C(=O)N[C@H]1CSSC[C@@H](C(=O)N[C@H](C)C(=O)N2CCC[C@H]2C(N)=O)NC(=O)[C@H](CC(=O)O)NC(=O)[C@H](Cc2cnc[nH]2)NC(=O)[C@H](Cc2c[nH]c3ccccc23)NC(=O)[C@H](CC(N)=O)NC(=O)[C@H](CC(N)=O)NC1=O [compound 9, Ac-M-W-T-I-C(3)-N-N-W-H-D-C(3)-(D-Ala)-P-CONH2] (Ac-MWTICNNWHDC[dA]P-NH2; disulfide 5-11)
< 1	CC(=O)N[C@@H](Cc1c[nH]c2ccccc12)C(=O)N[C@H](C(=O)N[C@H](C(=O)N[C@H]1CSSCC(C(=O)N[C@@H](Cc2c[nH]c3ccccc23)C(=O)N2CCC[C@H]2C(N)=O)NC(=O)[C@H]([C@@H](C)O)NC(=O)[C@@H](CCCCNC(=O)CN2CCN(CC(=O)O)CCN(CC(=O)O)CCN(CC(=O)O)CC2)NC(=O)[C@H](Cc2ccc3ccccc3c2)NC(=O)[C@H](CC(N)=O)NC(=O)[C@H](CC2CCNCC2)NC1=O)C1CCOCC1)[C@@H](C)O (stereo partly drawn) [compound 328, Ac-W-T-(THPG)-C(3)-[3-(4-piperidinyl)-Ala]-N-(2Nal)-Lys(DOTA)-(Thr)-C(3)-W-P-CONH2] (Ac-WT[Gly(4-THP)]C[Ala(piperidin-4-yl)]N[2Nal][dK](DOTA)T[ξC]WP-NH2; disulfide 4-10)
10 to 100	CC[C@H](C)[C@H](NC(=O)[C@@H](NC(=O)[C@H](Cc1c[nH]c2ccccc12)NC(C)=O)[C@@H](C)O)C(=O)N[C@H]1CSSC[C@@H](C(=O)N[C@@H](Cc2c[nH]c3ccccc23)C(=O)N2CCC[C@H]2C(N)=O)NC(=O)[C@H](CC(=O)O)NC(=O)[C@H](Cc2cnc[nH]2)NC(=O)[C@H](Cc2ccc(-c3ccccc3)cc2)NC(=O)[C@H](CC(N)=O)NC(=O)[C@H](CC(N)=O)NC1=O [compound 53, Ac-W-T-I-C(3)-N-N-(BIP)-H-D-C(3)-W-P-CONH2] (Ac-WTICNN[Bip]HDCWP-NH2; disulfide 4-10)
< 1	CC(=O)N[C@@H](Cc1c[nH]c2c(C)cccc12)C(=O)N[C@H](C(=O)N[C@H](C(=O)N[C@H]1CSCSC[C@@H](C(=O)N[C@@H](Cc2c[nH]c3ccccc23)C(=O)N2CCC[C@H]2C(N)=O)NC(=O)[C@H](CC(=O)O)NC(=O)[C@H](CCCCNC(=O)CN2CCN(CC(=O)O)CCN(CC(=O)O)CCN(CC(=O)O)CC2)NC(=O)[C@H](Cc2ccc3ccccc3c2)NC(=O)[C@H](CC(N)=O)NC(=O)[C@H](CC2CCNCC2)NC1=O)C1CCCCC1)[C@@H](C)O [compound 428, Ac-(7Me-Trp)-T-(Chg)-C(1)-[3-(4-piperidinyl)-Ala]-N-(2Nal)-Lys(DOTA)-D-C(1)-W-P-NH2] (Ac-[Trp(7-Me)]T[Chg]C[Ala(piperidin-4-yl)]N[2Nal]K(DOTA)DCWP-NH2; linker 4-10 via CH2)
